The CheMixHub viscosity set
± gives the uncertainty stated by the source.

Experiment: xn = mol fraction of the nth substance listed

c1ccccc1 + CCO
Details	viscosity [mPa·s]
293.15 K, 101 kPa, x1 = 0.16	1.017 ± 0.027
293.15 K, 101 kPa, x1 = 0.37	0.81 ± 0.021
293.15 K, 101 kPa, x1 = 0.64	0.657 ± 0.017
298.15 K, 101 kPa, x1 = 0.1259	0.916 ± 0.009
298.15 K, 101 kPa, x1 = 0.16	0.926 ± 0.025
298.15 K, 101 kPa, x1 = 0.2547	0.805 ± 0.008
298.15 K, 101 kPa, x1 = 0.37	0.759 ± 0.02
298.15 K, 101 kPa, x1 = 0.4079	0.708 ± 0.007
298.15 K, 101 kPa, x1 = 0.554	0.643 ± 0.007
298.15 K, 101 kPa, x1 = 0.64	0.624 ± 0.017
298.15 K, 101 kPa, x1 = 0.676	0.611 ± 0.006
298.15 K, 101 kPa, x1 = 0.779	0.583 ± 0.006
298.15 K, 101 kPa, x1 = 0.842	0.584 ± 0.006
298.15 K, 101 kPa, x1 = 0.91	0.587 ± 0.006
298.15 K, 101.33 kPa, x1 = 0.0518	1.013 ± 0.008
298.15 K, 101.33 kPa, x1 = 0.1059	0.959 ± 0.006
298.15 K, 101.33 kPa, x1 = 0.1078	0.955 ± 0.008
298.15 K, 101.33 kPa, x1 = 0.1897	0.88 ± 0.006
298.15 K, 101.33 kPa, x1 = 0.1934	0.884 ± 0.007
298.15 K, 101.33 kPa, x1 = 0.2966	0.794 ± 0.005
298.15 K, 101.33 kPa, x1 = 0.3308	0.776 ± 0.007
298.15 K, 101.33 kPa, x1 = 0.3795	0.728 ± 0.006
298.15 K, 101.33 kPa, x1 = 0.3983	0.731 ± 0.005
298.15 K, 101.33 kPa, x1 = 0.4887	0.681 ± 0.005
298.15 K, 101.33 kPa, x1 = 0.5514	0.651 ± 0.006
298.15 K, 101.33 kPa, x1 = 0.5729	0.647 ± 0.006
298.15 K, 101.33 kPa, x1 = 0.5993	0.638 ± 0.004
298.15 K, 101.33 kPa, x1 = 0.6579	0.607 ± 0.005
298.15 K, 101.33 kPa, x1 = 0.6973	0.61 ± 0.004
298.15 K, 101.33 kPa, x1 = 0.7073	0.588 ± 0.005
298.15 K, 101.33 kPa, x1 = 0.7987	0.59 ± 0.004
298.15 K, 101.33 kPa, x1 = 0.8126	0.567 ± 0.005
298.15 K, 101.33 kPa, x1 = 0.8995	0.582 ± 0.004
298.15 K, 101.33 kPa, x2 = 0.0192	0.567 ± 0.005
298.15 K, 101.33 kPa, x2 = 0.113	0.645 ± 0.0052
298.15 K, 101.33 kPa, x2 = 0.2	0.597 ± 0.012
298.15 K, 101.33 kPa, x2 = 0.306	0.642 ± 0.0051
298.15 K, 101.33 kPa, x2 = 0.5	0.712 ± 0.0057
298.15 K, 101.33 kPa, x2 = 0.692	0.816 ± 0.0065
298.15 K, 101.33 kPa, x2 = 0.892	0.977 ± 0.0078
298.16 K, 101 kPa, x2 = 0.1	0.583 ± 0.005
298.16 K, 101 kPa, x2 = 0.2	0.587 ± 0.005
298.16 K, 101 kPa, x2 = 0.3	0.605 ± 0.005
298.16 K, 101 kPa, x2 = 0.4	0.635 ± 0.005
298.16 K, 101 kPa, x2 = 0.5	0.675 ± 0.006
298.16 K, 101 kPa, x2 = 0.6	0.723 ± 0.006
298.16 K, 101 kPa, x2 = 0.7	0.782 ± 0.007
298.16 K, 101 kPa, x2 = 0.8	0.861 ± 0.007
298.16 K, 101 kPa, x2 = 0.9	0.959 ± 0.008
303 K, 100 kPa, x2 = 0.4	0.596 ± 0.005
303.15 K, 101 kPa, x1 = 0.1259	0.841 ± 0.009
303.15 K, 101 kPa, x1 = 0.16	0.839 ± 0.022
303.15 K, 101 kPa, x1 = 0.2547	0.737 ± 0.008
303.15 K, 101 kPa, x1 = 0.37	0.681 ± 0.018
303.15 K, 101 kPa, x1 = 0.4079	0.65 ± 0.007
303.15 K, 101 kPa, x1 = 0.554	0.593 ± 0.006
303.15 K, 101 kPa, x1 = 0.64	0.571 ± 0.015
303.15 K, 101 kPa, x1 = 0.676	0.564 ± 0.006
303.15 K, 101 kPa, x1 = 0.779	0.544 ± 0.006
303.15 K, 101 kPa, x1 = 0.842	0.546 ± 0.006
303.15 K, 101 kPa, x1 = 0.91	0.547 ± 0.006
308 K, 100 kPa, x2 = 0.4	0.551 ± 0.004
308.15 K, 101 kPa, x1 = 0.1259	0.769 ± 0.008
308.15 K, 101 kPa, x1 = 0.16	0.772 ± 0.021
308.15 K, 101 kPa, x1 = 0.2547	0.675 ± 0.007
308.15 K, 101 kPa, x1 = 0.37	0.623 ± 0.017
308.15 K, 101 kPa, x1 = 0.4079	0.598 ± 0.006
308.15 K, 101 kPa, x1 = 0.554	0.548 ± 0.006
308.15 K, 101 kPa, x1 = 0.64	0.538 ± 0.014
308.15 K, 101 kPa, x1 = 0.676	0.526 ± 0.006
308.15 K, 101 kPa, x1 = 0.779	0.511 ± 0.005
308.15 K, 101 kPa, x1 = 0.842	0.511 ± 0.005
308.15 K, 101 kPa, x1 = 0.91	0.51 ± 0.005
313 K, 100 kPa, x2 = 0.4	0.528 ± 0.004
313.15 K, 101 kPa, x1 = 0.1259	0.705 ± 0.007
313.15 K, 101 kPa, x1 = 0.16	0.699 ± 0.019
313.15 K, 101 kPa, x1 = 0.2547	0.622 ± 0.007
313.15 K, 101 kPa, x1 = 0.37	0.567 ± 0.015
313.15 K, 101 kPa, x1 = 0.4079	0.553 ± 0.006
313.15 K, 101 kPa, x1 = 0.5	0.5326 ± 0.0079
313.15 K, 101 kPa, x1 = 0.554	0.51 ± 0.005
313.15 K, 101 kPa, x1 = 0.64	0.5 ± 0.013
313.15 K, 101 kPa, x1 = 0.676	0.488 ± 0.005
313.15 K, 101 kPa, x1 = 0.7	0.4812 ± 0.0072
313.15 K, 101 kPa, x1 = 0.779	0.478 ± 0.005
313.15 K, 101 kPa, x1 = 0.842	0.481 ± 0.005
313.15 K, 101 kPa, x1 = 0.91	0.479 ± 0.005
313.15 K, 101.33 kPa, x2 = 0.113	0.525 ± 0.0042
313.15 K, 101.33 kPa, x2 = 0.306	0.515 ± 0.0041
313.15 K, 101.33 kPa, x2 = 0.5	0.555 ± 0.0044
313.15 K, 101.33 kPa, x2 = 0.692	0.629 ± 0.005
313.15 K, 101.33 kPa, x2 = 0.892	0.748 ± 0.006
318 K, 100 kPa, x2 = 0.4	0.477 ± 0.004
318.15 K, 101 kPa, x1 = 0.1259	0.646 ± 0.007
318.15 K, 101 kPa, x1 = 0.2547	0.573 ± 0.006
318.15 K, 101 kPa, x1 = 0.4079	0.514 ± 0.005
318.15 K, 101 kPa, x1 = 0.554	0.475 ± 0.005
318.15 K, 101 kPa, x1 = 0.676	0.458 ± 0.005
318.15 K, 101 kPa, x1 = 0.779	0.447 ± 0.005
318.15 K, 101 kPa, x1 = 0.842	0.451 ± 0.005
318.15 K, 101 kPa, x1 = 0.91	0.451 ± 0.005
323.15 K, 101.33 kPa, x2 = 0.2	0.424 ± 0.0085
